Experimental data reported in PMC10886515, “Discovery of A Novel Series of Quinazoline–Thiazole Hybrids as Potential Antiproliferative and Anti-Angiogenic Agents” (Biomolecules, 2024).
Where two headings read alike, the source gives them in different places.

Tests used:
BJ cells = test: Alamar Blue cytotoxicity assay on BJ cells; type: cell-based; settings: Homo sapiens, 48 h exposure, normal foreskin fibroblasts
Description: (§1) A human endothelial hybrid cell line (EA.hy926) (passage number 10–15), human hepatocellular carcinoma (HepG2) cells (passage number 10–15), and normal foreskin fibroblasts (BJ) (passage number 5–10) were used in the present study. All cell lines were purchased from ATCC (Manassas, United States of America). EA.hy926 cells were maintained in DMEM with high glucose supplemented with 1% sodium pyruvate, while the BJ cells were maintained in DMEM with low glucose concentration. HepG2 cells were cultured in MEM. All media were supplemented with 10% fetal bovine serum (FBS) and 1% penicillin/streptomycin. All cell lines were cultured at 37 °C in an incubator with 5% CO2 supplementation and cellular media were refreshed every other day. Once the cells reached a confluency of 80–90%, they were either subcultured or used in experiments.
(§2) The synthesized compounds’ cytotoxicity was evaluated using the Alamar Blue (AB) assay as previously described. The metabolically active cell-dependent conversion of non-fluorescent resazurin to the highly fluorescent resorufin compound is quantified spectrophotometrically at λexcitation = 530/25; λemission = 590/35, using a Synergy 2 Multi-Mode microplate reader. Briefly, a total of 5 x 10^3 EA.hy926 and BJ cells and 1 x 10^4 HepG2 cells were seeded in 100 µL in 96 well plates. The cells were left to attach overnight. […] At 48 h post-stimulation, the media were removed, and the AB assay was performed. The reported range of concentrations for each compound was obtained by employing the up-and-down method.
(§3) The experiments were conducted in three biological replicates, each one including 6 technical replicates. Cells exposed to culture media with 0.2% DMSO served as negative control (NC) and were used for data normalization (100%). The 50% Inhibitory Concentration (IC50) values were determined based on the dose–response curves obtained by fitting the experimental data with a 4-parameter logistic curve in SigmaPlot 11 software.

HepG2 cells = test: Alamar Blue cytotoxicity assay on HepG2 cells; type: cell-based, human; settings: for IC50: Homo sapiens, read-out: IC50 HepG2; for Selectivity Index SIb: SIb = IC50 BJ/IC50 HepG2
Description: as §1, §2, §3

EA.hy926 cells [1] = test: Alamar Blue cytotoxicity assay on EA.hy926 cells; type: cell-based, human; settings: for IC50: Homo sapiens, read-out: IC50 EA.hy926; for Selectivity Index SIa: SIa = IC50 BJ/IC50 EA.hy296
Description: as §1, §2, §3

[2] = system: chorioallantoic membrane (CAM) of chicken eggs; test: Chorioallantoic egg membrane (CAM) assay; type: in vivo; settings: for peak number of vascular branching points from day 3, fold lower than control sample: day 3 vs control (0.2% DMSO); for reduction in vascular branching on day 4 compared to day 3: day 4 vs day 3; for reduction in the number of vascular branching points on day 5 compared to day 5 of the control sample: day 5 vs control (0.2% DMSO); for reduction in vascular branching on day 5 compared to day 3: day 5 vs day 3
Description: To assess the anti-angiogenic effects, a biological model represented by the chorioallantoic membrane (CAM) of chicken eggs was employed. […] The experimental procedure involved the following steps: (I) initial cleaning with 70% alcohol solution and incubation of the eggs at a constant humidity (45%) and temperature (37.5 °C) on the first day; (II) on the third day of embryonic development (EDD3), a small hole at the egg tip was created and approximately 5–7 mL of albumen were extracted to facilitate detachment of the chorioallantoic membrane from the inner shell; and (III) on EDD4, a window was created at the egg’s top to visualize the vascular plexus, covering it with adhesive tape, and returning the egg to the incubator until the experiment’s commencement.
The assessment of anti-angiogenic impact began on the sixth day of embryonic development and extended over five days. To achieve this, a silicon ring was applied to the CAM, and 10 μL of the tested compounds was administered daily within the ring. The evaluation of angiogenesis involved daily photographic documentation of the vascular plexus using a Discovery v.8 stereomicroscope, a Zeiss Axio CAM 105 color camera, and ZEN core 3.8 software. […] The quantitative evaluation of vessel numbers branching points and total vessel area was performed using the IKOSA Prism Application CAM assay (v3.1.0).

EA.hy926 cells [3] = test: Wound healing (scratch) assay; type: cell-based, human; settings: 12 h
Description: EA.hy926 cells were seeded in 12-well plates and incubated for 24 h until confluency was reached. The medium was removed and a scratch in the cell monolayer was manually added with a sterile pipette tip. Subsequently, the cells were gently washed two times with DPBS to remove the detached cells. […] Images were captured at the time of exposure (T0) and 12 h post-exposure (T12). The rate of cell migration was determined by calculating the wound healing percentage (%) according to the formula (AT0 – AT12)/ AT0*100 previously reported. The scratch area at the initial time of exposure (AT0) and after 12 h (AT12), expressed as square pixels (Px^2), were determined using the IKOSA Prisma Application Wound Healing (Scratch) assay (v2.2.0).

[4] = Solubility observed in the cellular media; type: physicochemical; settings: plasma or biological fluid, read-out: concentrations at which limited solubility in the cellular media was observed
[5] = HepG2, 48 h exposure, Alamar Blue
[6] = EA.hy 926, 48 h exposure, Alamar Blue

| melting point [°C] | Compound | IC50 (BJ cells) [µM] | IC50 (HepG2 cells; [5]) [µM] | Selectivity Index SIb (HepG2 cells) | IC50 (EA.hy926 cells [1]; [6]) [µM] | Selectivity Index SIa (EA.hy926 cells [1]) | further results |
| --- | --- | --- | --- | --- | --- | --- | --- |
| 230 | COc1ccc(-c2csc(N/N=C/c3ccc(Oc4ncnc5cc(OC)c(OC)cc45)cc3)n2)cc1 [SA01, (E)-2-(2-(4-((6,7-dimethoxyquinazolin-4-yl)oxy)-benzylidene)hydrazineyl)-4-(4-methoxyphenyl)-thiazole] | 36.2 | 31.2 | 1.16 | 3.64 | 9.96 |  |
| 242 to 243 | COc1cc2ncnc(Oc3ccc(/C=N/Nc4nc(-c5ccc(F)cc5)cs4)cc3)c2cc1OC [SA02, (E)-2-(2-(4-((6,7-dimethoxyquinazolin-4-yl)oxy)benzylidene)hydrazineyl)-4-(4-fluorophenyl)-thiazole] | 2.35 | 2.34 | 1.00 | 0.93 | 2.53 |  |
| 231 to 232 | COc1cc2ncnc(Oc3ccc(/C=N/Nc4nc(-c5ccc(Cl)cc5)cs4)cc3)c2cc1OC [SA03, (E)-2-(2-(4-((6,7-dimethoxyquinazolin-4-yl)oxy)benzylidene)hydrazineyl)-4-(4-chlorophenyl)-thiazole] | 2.84 | 4.24 | 0.67 | 0.79 | 3.59 | fold higher activity compared to sorafenib (EA.hy926 cells [1]; EA.hy926 cells): 8.3 fold |
| 237 to 238 | COc1cc2ncnc(Oc3ccc(/C=N/Nc4nc(-c5ccc(C(F)(F)F)cc5)cs4)cc3)c2cc1OC [SA04, (E)-2-(2-(4-((6,7-dimethoxyquinazolin-4-yl)oxy)benzylidene)hydrazineyl)-4-(4-(trifluoromethyl)-phenyl)thiazole] | 6.79 | 2.72 | 2.50 | 0.98 | 6.93 | peak number of vascular branching points from day 3, fold lower than control sample [2]: 1.3 fold; reduction in vascular branching on day 4 compared to day 3 [2]: 47%; reduction in the number of vascular branching points on day 5 compared to day 5 of the control sample [2]: 67%; reduction in vascular branching on day 5 compared to day 3 [2]: 60%; Wound heal (%) (EA.hy926 cells [3]; 0.25 μM): 63.45%; Wound heal (%) (EA.hy926 cells [3]; 0.5 μM): 46.99%; Wound heal (%) (EA.hy926 cells [3]; 0.75 μM): 46.83%; Wound heal (%) (EA.hy926 cells [3]; 1 μM): 43.87% |
|  | COc1cc2ncnc(Oc3ccc(/C=N/Nc4nc(-c5ccc(C#N)cc5)cs4)cc3)c2cc1OC [SA05, (E)-2-(2-(4-((6,7-dimethoxyquinazolin-4-yl)oxy)benzylidene)hydrazineyl)-4-(4-benzonitrile)thiazole] | 2.67 | 1.83 | 1.46 | 1.4 | 1.91 | peak number of vascular branching points from day 3, fold lower than control sample [2]: 1.18 fold; reduction in vascular branching on day 4 compared to day 3 [2]: 16%; reduction in the number of vascular branching points on day 5 compared to day 5 of the control sample [2]: 42%; reduction in vascular branching on day 5 compared to day 3 [2]: 39%; Wound heal (%) (EA.hy926 cells [3]; 0.75 μM): 66.41%; Wound heal (%) (EA.hy926 cells [3]; 1 μM): 62.45%; Wound heal (%) (EA.hy926 cells [3]; 1.25 μM): 61.52%; Wound heal (%) (EA.hy926 cells [3]; 1.5 μM): 54.42%; fold higher activity compared to sorafenib (HepG2 cells; HepG2 cells): 3.5 fold |
|  | COc1cc2ncnc(Oc3ccc(/C=N/Nc4nc(C)cs4)cc3)c2cc1OC [SA06, (E)-2-(2-(4-((6,7-dimethoxyquinazolin-4-yl)-oxy)-benzylidene-)hydrazineyl)-4-methyl-thiazole] | > 100 | > 100 |  | > 10 |  | solubility [4]: > 5 µM |
| 246 to 247 | COc1cc2ncnc(Oc3ccc(/C=N/Nc4nc(-c5ccc(O)c(C(N)=O)c5)cs4)cc3)c2cc1OC [SA07, (E)-5-(2-(2-(4-((6,7-dimethoxyquinazolin-4-yl)oxy)benzylidene)hydrazineyl)thiazol-4-yl)-2-hydroxy-benzamide] | 23.8 | 27.3 | 0.87 | 5.85 | 4.06 |  |
|  | CNC(=O)c1cc(Oc2ccc(NC(=O)Nc3ccc(Cl)c(C(F)(F)F)c3)cc2)ccn1 [Sorafenib, sorafenib, reference compound] | 13.2 |  |  |  |  | Wound heal (%) (EA.hy926 cells [3]; 1.25 μM): 70.54%; Wound heal (%) (EA.hy926 cells [3]; 2.5 μM): 37.99%; Wound heal (%) (EA.hy926 cells [3]; 5 μM): 18.88%; IC50 (HepG2 cells; HepG2, 48 h): 6.28 µM; IC50 (EA.hy926 cells [1]; EA.hy 926, 48 h): 6.62 µM |
